Tests used:
CB-2 cells [1] = assay: Trypan blue viability of CB-2 cells; format: cell-based
Method: (§1) The following cell lines were used: N87 human gastric tumor cell line expressing the ErbB-2 receptors (described by Park et al, 1990); CB-2 cell line, generated by transfection of Chinese hamster ovary (CHO) cells with mammalian expression vectors that direct expression of ErbB-2 (Tzahar et al, 1996); and 32D cell line known to be devoid of the ErbB-2 receptors (described by Pinkas-Kramarski, 1996).
(§2) Viability of living cells was done after staining with Trypan Blue (0.025%) for 10 minutes.
(§3) Cell cultures of N87 (20,000 cells/well) were grown in 96-well plates and 32D cells were grown in suspension in 12-well plates (200,000 cells/ml). Cells were treated with: none, mAb ErbB-2 or mAb-ErbB-2-alliinase conjugate (total protein 2 μg/20,000 cells) for 1 hour at 37° C.

N87 cancer cells = assay: Trypan blue viability of N87 cells; format: cell-based; conditions: alliin only, mAb ±alliin, or conjugate without alliin
Method: as §1, §2, §3

N-87 tumors = assay: In vivo assay of antitumor effects (tumor growth) in nude mice injected with N-87 cells; conditions: alliin alone i.p., control mice
Method: N-87 cultured cells (3-5×10^6) were injected subcutaneously into the back of the mice. One to 5 days later, groups of 6 to 8 mice received either none or mAb-alliinase conjugate by intravenous injection (20 μg mAb/mouse). Conjugates were injected with 3-4 days intervals.
All mice were supplemented with Pyridoxine (vitamin B6) in the drinking water (100 mg/L). […] Tumor size was measured every second day.
All the animal groups were injected with N-87 cells 1-5 days before any treatment. • Group 1. […] Mice were treated with mAb-alliinase conjugates and alliin was administered regularly as described below.
MAb-alliinase conjugate was injected I.V. every 3-4 days. Mice were treated ×5 with the conjugate (20 μg/mouse) in. 3-4 day intervals. Total amount of mAb in the conjugate/mouse was 0.1 mg.

CB-2 cells [2] = assay: [3H]-thymidine incorporation (cell proliferation) in CB-2 cells; format: cell-based, Chinese hamster; conditions: allicin 0-54 μM, 16 h
Method: as §1
[Methyl-^3H]thymidine incorporation (Amersham Pharmacia Biotech, UK) into DNA was measured in 96-well plates. Cells (1,000-20,000 cells/well) were grown 6 h after seeding at 37° C. Cells were treated with conjugates for 1 hour and then 3×washed with medium. […] Cells were harvested after 16 hours incubation at 37° C.
Different concentrations of pure allicin were applied to tissue cultured […] CB-2 cancer cells for quantitative determination of the effective concentration. Thus, CB-2 cells were cultured in 96-well plate (2000 cells/well) for 6-16 h at 37° C. Pure allicin was added (10 μl/well) from pre-diluted allicin solutions in PBS to final concentrations of 0-54 μM (0-9 μg/ml). [^3H]-Thymidine diluted with medium was added to the cell culture (0.8 μCi/well). Cells were harvested after incubation for 16 h at 37° C. and the level of incorporated [^3H]-thymidine was measured to determine the extent of cell proliferation. […]

[3] = background statement; cited from earlier work

Compound | cell damage (Trypan blue) (CB-2 cells [1]; CB-2, alliin only, mAb ±alliin, or conjugate without alliin) | cell damage (Trypan blue) (N87 cancer cells) | tumor size (N-87 tumors) | [3H]-thymidine incorporation (DNA synthesis) (CB-2 cells [2]) | lethal concentration (CB-2 cells [1]; Trypan blue staining, CB-2 cells) | lifetime after being mixed with blood [3]
S-allyl-L-cysteine sulfoxide [alliin] | not damaged | not damaged | no effect on the tumor size |  |  | 
C=CCS[S+]([O-])CC=C (stereo not drawn) [allicin, thio-2-propene-1-sulfinic acid S-allyl ester] |  |  |  | inhibits DNA synthesis | about 20 μM | disappears within a few minutes

From US7445802B2, “Site-specific in situ generation of allicin using a targeted alliinase delivery system for the treatment of cancers, tumors, infectious diseases and other allicin-sensitive diseases” (Yeda Research and Development Co. Ltd, priority 2000, dated 2008)
